Assay results as given in US20060199801A1, “Heterobicyclic compounds used as fungicides” (priority 2003, published 2006).

Key:
[1] = system: Erysiphe [syn. Blumeria] graminis forma specialis tritici; experiment: Activity against mildew of wheat caused by Erysiphe [syn. Blumeria] graminis forma specialis tritici, protective use; type: in vivo; details: 250 ppm spray, wheat seedlings cultivar Newton, visual rating after 7 days, % of entire leaf area, untreated 90%
Procedure: Activity Against Mildew of Wheat Caused by Erysiphe [syn. Blumeria] graminis form a Specialis tritici, Protective Use
Leaves of wheat seedlings, grown in pots, of the cultivar “Newton” were sprayed to runoff point with an aqueous suspension having the concentration of active compound stated below. The suspension or emulsion was prepared from a stock solution comprising 5% of active compound, 94% of cyclohexanone and 1% of emulsifier (Tween 20) by dilution with water. 3-5 hours after the spray coating had dried on, the […] of wheat (Erysiphe [syn. Blumeria] graminis form a specialis. tritici). The test plants were then placed in a greenhouse at 20-24° C. and 60-90% relative atmospheric humidity. After 7 days, the extent of the mildew development was determined visually in % infection of the entire leaf area.

Plasmopara viticola = experiment: Activity against Peronospora of grapevines caused by Plasmopara viticola, protective use; type: in vivo; details: 250 ppm spray, grapevine cultivar Müller-Thurgau, visual rating of leaf undersides, untreated 90%
Procedure: (§1) For use examples 1 and 2, the active compounds were formulated as a stock solution 15 with 0.25% by weight of active compound in acetone or dimethyl sulfoxide (DMSO). 1% by weight of the emulsifier Uniperol® EL (wetting agent having emulsifying and dispersant action based on ethoxylated alkylphenols) was added to this solution, and the mixture was diluted with water to the desired concentration.
Activity against Peronospora of Grapevines caused by Plasmopara viticola, Protective Use
Leaves of potted grapevines of the cultivar “Müller-Thurgau” were sprayed to runoff point with an aqueous suspension having the concentration of active compound stated below. The next day, the undersides of the leaves were inoculated with an aqueous zoospore suspension of Plasmopara viticola. The grapevines were then initially placed in a water-vapor-saturated chamber at 24° C. for 48 hours and then in a greenhouse at 20-30° C. for 5 days. After this period of time, the plants were again placed in a humid chamber for 16 hours to promote sporangiophore eruption. The extent of the development of the infection on the undersides of the leaves was then determined visually.

Alternaria solani = experiment: Activity against early blight of tomato caused by Alternaria solani, protective use; type: in vivo; details: 250 ppm spray, tomato cultivar Large Fruited St. Pierre, visual rating after 5 days, untreated 80%
Procedure: as §1
Activity Against Early Blight of Tomato Caused by Alternaria solani, Protective Use
Leaves of potted plants of the tomato cultivar “Large Fruited St. Pierre” were sprayed to runoff point with an aqueous suspension having the concentration of active compound stated below. The next day, the leaves were infected with an aqueous spore suspension of Alternaria solani in a 2% biomalt solution having a density of 0.17×10^6 spores/ml. The plants were then placed in a water-vapor-saturated chamber at 20-22° C. After 5 days, the blight on the untreated but infected control plants had developed to such an extent that the infection could be determined visually in %.

**Q.** For `CCCC(C)c1c(-c2ccc(C)cc2F)c(C)nn2cnnc12` (single isomer, unassigned) [Example 19], which “Infection [%] at 250 ppm” value [1] is on record?
**A.** 20%

**Q.** With `Cc1ccc(-c2c(C)nn3cnnc3c2C2CCCCC2)c(C)c1` [Example 9] as the molecule, how does the “Infection [%] at 250 ppm” value (Plasmopara viticola) read?
**A.** 20%

**Q.** Which “Infection [%] at 250 ppm” value [1] does the source give for `CCCC(C)c1c(-c2ccc(F)cc2F)c(C)nn2cnnc12` (single isomer, unassigned) [Example 21] here?
**A.** 3%

**Q.** What about the “Infection [%] at 250 ppm” value (Plasmopara viticola) of the same molecule?
**A.** 3%

**Q.** Which “Infection [%] at 250 ppm” value (Plasmopara viticola) does the source give for `Cc1cc(F)ccc1-c1c(C)nn2cnnc2c1C1CCCCC1` [Example 10] here?
**A.** 0%

**Q.** With `Cc1ccc(-c2c(C)nn3cnnc3c2CC(C)C)c(F)c1` [Example 7] as the molecule, how does the “Infection [%] at 250 ppm” value (Alternaria solani) read?
**A.** 20%

**Q.** With `Cc1cc(F)ccc1-c1c(C)nn2cnnc2c1CC(C)C` [Example 2] as the molecule, how does the “Infection [%] at 250 ppm” value (Alternaria solani) read?
**A.** 15%

**Q.** And the “Infection [%] at 250 ppm” value (Plasmopara viticola)?
**A.** 0%

**Q.** Which “Infection [%] at 250 ppm” value (Alternaria solani) does the source give for `CCCCc1c(-c2ccc(F)cc2F)c(C)nn2cnnc12` [Example 4] here?
**A.** 10%

**Q.** And the “Infection [%] at 250 ppm” value (Plasmopara viticola)?
**A.** 0%

**Q.** Which results are given for `CCCCc1c(-c2ccc(F)cc2C)c(C)nn2cnnc12` [Example 3]?
**A.** Infection [%] at 250 ppm (Alternaria solani): 25%; Infection [%] at 250 ppm (Plasmopara viticola): 0%

**Q.** Which “Infection [%] at 250 ppm” value (Plasmopara viticola) does the source give for `CCCCc1c(-c2ccc(C)cc2F)c(C)nn2cnnc12` [Example 5] here?
**A.** 0%

**Q.** With `Cc1ccc(-c2c(C)nn3cnnc3c2CCC(C)(C)C)c(F)c1` [Example 12] as the molecule, how does the “Infection [%] at 250 ppm” value (Alternaria solani) read?
**A.** 3%

**Q.** And the “Infection [%] at 250 ppm” value (Plasmopara viticola)?
**A.** 3%

**Q.** With `CCC(C)C(C)c1c(-c2ccc(F)cc2C)c(C)nn2cnnc12` (mixture of isomers) [Example 16] as the molecule, how does the “Infection [%] at 250 ppm” value (Alternaria solani) read?
**A.** 20%

**Q.** With `CC1CCN(c2c(-c3c(F)cccc3Cl)c(Cl)nc3nnnn23)CC1` [Example 23, 5-Chloro-6-(2-chloro-6-fluorophenyl)-7-(4-methylpiperidin-1-yl)-tetrazolo[1,5-a]pyrimidine] as the molecule, how does the “Infection [%] at 250 ppm” value [1] read?
**A.** 15%

**Q.** With `Cc1ccc(-c2c(C)nn3cnnc3c2CCC(C)(C)C)c(C)c1` [Example 15] as the molecule, how does the “Infection [%] at 250 ppm” value [1] read?
**A.** 20%

**Q.** What about the “Infection [%] at 250 ppm” value (Plasmopara viticola) of the same molecule?
**A.** 3%

**Q.** For `CCCC(C)c1c(-c2ccc(F)cc2C)c(C)nn2cnnc12` (racemic) [Example 13], which “Infection [%] at 250 ppm” value (Alternaria solani) is on record?
**A.** 10%

**Q.** For `Cc1nn2cnnc2c(C2CCCCC2)c1-c1ccc(F)cc1F` [Example 8], which “Infection [%] at 250 ppm” value (Alternaria solani) is on record?
**A.** 0%

**Q.** What about the “Infection [%] at 250 ppm” value (Plasmopara viticola) of the same molecule?
**A.** 0%

**Q.** Which results are given for `Cc1nn2cnnc2c(CCC(C)(C)C)c1-c1ccc(F)cc1F` [Example 11]?
**A.** Infection [%] at 250 ppm (Alternaria solani): 20%; Infection [%] at 250 ppm (Plasmopara viticola): 0%

**Q.** With `Cc1nn2ncnc2c(CC(C)C)c1-c1ccc(F)cc1F` [Example 38, 7-(2,4-Difluorophenyl)-8-isobutyl-6-methyl-[1,2,4]triazolo[1,5-b]pyridazine] as the molecule, how does the melting point read?
**A.** 103 to 105 °C

**Q.** For `Cc1nn2cnnc2c(CC(C)C)c1-c1ccc(F)cc1F` [Example 6], which “Infection [%] at 250 ppm” value (Plasmopara viticola) is on record?
**A.** 0%

**Q.** Which “Infection [%] at 250 ppm” value (Alternaria solani) does the source give for `Cc1nc2c(C#N)ncn2c(N[C@H](C)C(C)C)c1-c1c(F)cc(F)cc1F` [Example 36] here?
**A.** 7%

**Q.** Which “Infection [%] at 250 ppm” value [1] does the source give for `CCC(C)C(C)c1c(-c2ccc(C)cc2F)c(C)nn2cnnc12` (single isomer, unassigned) [Example 20] here?
**A.** 5%

**Q.** With `Cc1nn2cnnc2c(CC(C)C)c1-c1ccccc1` [Example 1, 7-Phenyl-8-isobutyl-6-methyl-[1,2,4]triazolo[4,3-b]pyridazine] as the molecule, how does the “Infection [%] at 250 ppm” value (Alternaria solani) read?
**A.** 10%

**Q.** What about the “Infection [%] at 250 ppm” value (Plasmopara viticola) of the same molecule?
**A.** 20%

**Q.** For `CCCC(C)c1c(-c2ccc(F)cc2F)c(C)nn2cnnc12` (single isomer, unassigned) [Example 18], which “Infection [%] at 250 ppm” value [1] is on record?
**A.** 7%

**Q.** And the “Infection [%] at 250 ppm” value (Plasmopara viticola)?
**A.** 10%

**Q.** With `CCC(C)C(C)c1c(-c2ccc(C)cc2F)c(C)nn2cnnc12` (single isomer, unassigned) [Example 22] as the molecule, how does the “Infection [%] at 250 ppm” value [1] read?
**A.** 7%

**Q.** For `CCCC(C)c1c(-c2ccc(C)cc2C)c(C)nn2cnnc12` (racemic) [Example 14], which “Infection [%] at 250 ppm” value [1] is on record?
**A.** 20%
